One assay has as its system gastric secretion. As to the kind of experiment: Antisecretory test (pyloric ligation, gastric secretion volume). The settings on record: for found to be active in the antisecretory test: rats, pyloric ligation, in words; for ED50: Rattus norvegicus, orally 1 hour prior to pyloric ligation or subcutaneously immediately after, 5 h after ligation, maximum dosage 10 mg./kg., read-out: Antisecretory Activity ED50 (50% reduction in the volume of gastric secretion). The class given is in vivo, Wistar rats (adult female). Here is the method:
Adult female Wistar rats weighing 140 to 160 g. were starved for 24 hours prior to the test. The animals were anaesthetized with ether, shaved on the abdomen, and a small midline incision made. The pylorus was exposed, ligated, and the wound subsequently closed with wound clips. The animals were treated with the test compound administered either orally 1 hour prior to pyloric ligation or subcutaneously immediately after ligation. The test compound was administered in distilled water or 0.5% methyl cellulose. Six animals were used for each treatment. Five hours following the ligation, the animals were sacrificed, the stomachs were carefully removed and opened, and the gastric contents measured for volume and titratable acidity. […] A maximum dosage of 10 mg./kg. was used for the test compounds.

For assay [1], the system named is charcoal entering the cecum. As to the kind of experiment: Antimotility test (charcoal entering the cecum). In kind it is in vivo, mice (adult male). The following applies: for found to be active in the antimotility tests: mice, in words; for ED50: Mus musculus, oral, 1 h before charcoal, examined 3.5 h after charcoal, maximum dosage 30 mg./kg., read-out: Antimotility ED50 (prevented the charcoal from entering the cecum in 50% of the treated mice).
Method: Adult male mice weighing in the range of 20 to 30 g. were starved for 24 hours prior to the test. The animals were then treated orally with the test compound dissolved in water or suspended in methyl cellulose. One hour later, each animal was dosed with 0.2 ml. of a charcoal suspension consisting of 5% activated charcoal suspended in 0.25% methyl cellulose. The animals were sacrificed 3.5 hours after the charcoal administration and their cecums examined for the presence or absence of charcoal. […] A maximum dosage of 30 mg./kg. was used.

The next assay has as its system diarrhea. As to the kind of experiment: Antidiarrheal test (castor oil diarrhea). The class given is in vivo, Swiss-Webster mice (adult male). The settings on record: Mus musculus; oral, 1 h before castor oil; diarrhea noted 3 h later; maximum 30 mg./kg.; read-out: Antidiarrheal ED50 (inhibited diarrhea in 50% of the treated mice). Here is the method:
In this test adult male Swiss-Webster mice weighing 30 to 40 g. were employed, using 6 mice per treatment. The test compound was administered orally in a dosage series with a maximum of 30 mg./kg. either in water if soluble or else in 0.5% methyl cellulose. One hour after treatment, each animal received a single dose of 0.3 ml. of castor oil, administered orally. The animals were then individually caged and provided food and water.

The source of these data is patent US3950537A, “Gastrointestinally active thioureas” (Rohm and Haas Company, priority 1975, dated 1976).

Where a name gives a salt, the structure may show the parent alone.

`Cc1cc(Cl)ccc1NC(=S)NCCO` [Preparation L]: the “found to be active in the antisecretory test” value in the assay on gastric secretion is on record as “active”. Also, the “found to be active in the antimotility tests” value in assay [1] is “active”.
`Cc1ccc(NC(=S)NCCS)c(C)c1` [AK]: the results for the ED50 (in the assay on gastric secretion; in assay [1]; in the assay on diarrhea) were > 10 mg/kg, 15 to 30 mg/kg and > 30 mg/kg, respectively.
Turning to `Cc1ccc(NC(=S)NCCO)c(C)c1` [Preparation F, 1-(2,4-dimethylphenyl)-3-(2-hydroxyethyl)-thiourea], the “found to be active in the antisecretory test” value in the assay on gastric secretion is “active”. Also, the “found to be active in the antimotility tests” value in assay [1] is recorded as “active”.
As for `Cc1ccc(NC(=S)NCCO)cc1C` [I], the results for the ED50 (with gastric secretion; in assay [1]; with diarrhea) were > 10 mg/kg, > 30 mg/kg and > 30 mg/kg, respectively.
With `CCc1ccccc1NC(=S)NCCO` [Preparation B], the “found to be active in the antimotility tests” value in assay [1] was “active”.
For the molecule `CCOC(=O)C1(c2ccccc2)CCN(CCC(C#N)(c2ccccc2)c2ccccc2)CC1` [Lomotil, diphenoxylate hydrochloride, reference compound], the figures for the ED50 (in assay [1]; in the assay on diarrhea) were 2 mg/kg and 9.9 mg/kg, respectively.
Turning to `COc1ccc(NC(=S)NCCO)c(C)c1` [R], the ED50 with gastric secretion was > 10 mg/kg; in assay [1] it was 12.5 mg/kg; in the assay on diarrhea it was 30 mg/kg.
The corresponding values for `CCc1ccccc1NC(=S)NCCO` [B] are > 10 mg/kg, > 15 mg/kg and 15 to 30 mg/kg.
For `Cc1ccc(NC(=S)NCCCO)c(C)c1` [AQ] the same measures were > 10 mg/kg, > 30 mg/kg and > 30 mg/kg.
Turning to `Cc1cccc(C)c1NC(=S)N(C)C` [AC], the values for the ED50 (with gastric secretion; in assay [1]) were > 10 mg/kg and < 30 mg/kg, respectively.
Take `Cc1ccccc1NC(=S)NCCO` [A]: the ED50 in the assay with gastric secretion is 3 to 10 mg/kg; in assay [1], 11.5 mg/kg; with diarrhea it was 7.8 mg/kg.
For the molecule `Cc1ccc(NC(=S)NCCO)cc1` [D], the ED50 in assay [1] is > 30 mg/kg.
`OCCNC(=S)Nc1ccc(Cl)cc1Cl` [P]: the ED50 in the assay on gastric secretion was > 10 mg/kg; in assay [1], > 30 mg/kg; in the assay with diarrhea, > 30 mg/kg.
On to `Cc1cccc(Cl)c1NC(=S)NCCO` [Preparation N], for which the “found to be active in the antimotility tests” value in assay [1] is “active”.
As for `Cc1cc(Br)ccc1NC(=S)NCCO` [O], the ED50 is < 10 mg/kg in the assay on gastric secretion, 18.5 mg/kg in assay [1] and > 30 mg/kg in the assay with diarrhea.
With `Cc1cccc(Cl)c1NC(=S)NCCO` [N], the ED50 was > 10 mg/kg in the assay on gastric secretion and < 30 mg/kg in assay [1].
For `Cc1cc(Br)ccc1NC(=S)NCCO` [Preparation O], in assay [1], the “found to be active in the antimotility tests” value was “active”.
Turning to `Cc1ccc(NC(=S)NCCN(C)C)c(C)c1` [AH], the ED50 in the assay with gastric secretion was > 10 mg/kg; in assay [1], 20 mg/kg; in the assay with diarrhea it was > 30 mg/kg.
The corresponding values for `OCCNC(=S)Nc1ccc2ccccc2c1` [U] are > 10 mg/kg, > 30 mg/kg and > 30 mg/kg.
For `Cc1cccc(C)c1NC(=O)NCCO` [AR] the same measures were > 10 mg/kg, > 30 mg/kg and > 30 mg/kg.
As for `CNC(=S)Nc1ccc(C)cc1C` [AE], the values for the ED50 (in the assay on gastric secretion; in assay [1]) were > 10 mg/kg and > 30 mg/kg, respectively.
In the case of `Cc1cccc(C)c1NC(=S)NCCN` [AI], the ED50 with gastric secretion was > 10 mg/kg; in assay [1] it was 15.5 mg/kg; in the assay on diarrhea it was 11.5 mg/kg.
`Cc1cccc(NC(=S)NCCO)c1C` [E]: the figures for the ED50 (with gastric secretion; in assay [1]; in the assay with diarrhea) were 3 mg/kg, 5 mg/kg and 12.5 mg/kg, respectively.
For `Cc1ccc(NC(=S)NCCO)c(C)c1` [F] the same measures were 0.5 to 1 mg/kg, 8.6 mg/kg and 10.5 mg/kg.
On to `Cc1cc(C)c(NC(=S)NCCO)c(C)c1` [Preparation S], for which, in the assay with gastric secretion, the “found to be active in the antisecretory test” value is listed as “active”. For the same molecule, in assay [1], the “found to be active in the antimotility tests” value is recorded as “active”.
Regarding `Cc1ccccc1NC(=S)NCCO` [Preparation A, 1-(2-methylphenyl)-3-(2-hydroxyethyl)thiourea], the “found to be active in the antisecretory test” value in the assay on gastric secretion was “active”. Besides, in assay [1], the “found to be active in the antimotility tests” value is recorded as “active”.
`Cc1ccc(NC(=S)NCCN(C)C)c(C)c1` [Preparation AH, 1-(2,4-dimethylphenyl)-3-(2-dimethylaminoethyl)-thiourea]: the “found to be active in the antimotility tests” value in assay [1] is reported as “active”.
On to `Cc1ccc(NC(=S)NCC(C)O)c(C)c1` (stereo not shown) [AP], for which the ED50 in the assay with gastric secretion is > 10 mg/kg; in assay [1], > 30 mg/kg; in the assay on diarrhea, > 30 mg/kg.
As to `COc1ccc2c3c1O[C@H]1[C@@H](O)C=C[C@H]4[C@@H](C2)N(C)CC[C@@]341` [codeine phosphate, reference compound], the ED50 in assay [1] was determined as 29 mg/kg; in the assay with diarrhea, 35 mg/kg.
For the molecule `COc1ccc(NC(=S)NCCO)c(C)c1` [Preparation R], in assay [1], the “found to be active in the antimotility tests” value was “active”.
On the same count and under the same terms, in the case of `Cc1cc(Cl)ccc1NC(=S)N(C)C` [Preparation AD, 1-(2-methyl-4-chlorophenyl)-3,3-dimethylthiourea] it was “active”; in that of `Cc1c(Cl)cccc1NC(=S)NCCO` [Preparation K], “active”.
With `Cc1ccc(NC(=S)NC(C)(C)CO)c(C)c1` [AO], the ED50 in the assay with gastric secretion was > 10 mg/kg; in assay [1], < 30 mg/kg; in the assay with diarrhea, > 30 mg/kg.
For `CN1CCCN=C1COC(=O)C(O)(c1ccccc1)C1CCCCC1` (stereo not shown) [Daricon, oxyphencyclimine hydrochloride, reference compound] the same measures were 2.4 mg/kg, 3.4 mg/kg and 50 mg/kg.
As to `Cc1ccc(Cl)cc1NC(=S)NCCO` [Preparation M], the “found to be active in the antimotility tests” value in assay [1] is recorded as “active”.
Regarding `OCCNC(=S)Nc1cccc2ccccc12` [T], the values for the ED50 (in assay [1]; with diarrhea) were 7 mg/kg and 15 to 30 mg/kg, respectively.
In the case of `OCCNC(=S)Nc1cccc2ccccc12` [Preparation T], the “found to be active in the antimotility tests” value in assay [1] is given as “active”.
Turning to `Cc1c(Cl)cccc1NC(=S)NCCO` [K], the ED50 in the assay with gastric secretion was > 10 mg/kg; in assay [1], 7.2 mg/kg; in the assay on diarrhea, < 30 mg/kg.
The corresponding values for `Cc1cc(O)ccc1NC(=S)NCCO` [Q] are > 10 mg/kg, > 30 mg/kg and > 30 mg/kg.
Take `Cc1ccc(Cl)cc1NC(=S)NCCO` [M]: the ED50 in the assay with gastric secretion is > 10 mg/kg; in assay [1], 7.4 mg/kg; with diarrhea, 15 to 30 mg/kg.
Take `Cc1cccc(NC(=S)NCCO)c1C` [Preparation E]: in the assay on gastric secretion, the “found to be active in the antisecretory test” value is on record as “active”. Also, the “found to be active in the antimotility tests” value in assay [1] was “active”.
Consider `Cc1cc(C)c(NC(=S)NCCO)c(C)c1` [S], for which the ED50 was < 10 mg/kg in the assay with gastric secretion, 6.4 mg/kg in assay [1] and < 30 mg/kg with diarrhea.
For `Cc1ccc(NC(=S)NCCN)c(C)c1` [AG] the same measures were > 10 mg/kg, 13 mg/kg and 10 mg/kg.
For the molecule `CC(C)c1ccccc1NC(=S)NCCO` [C], the ED50 in the assay on gastric secretion is > 10 mg/kg; in assay [1] it was > 30 mg/kg; in the assay with diarrhea, > 30 mg/kg.
Take `Cc1cccc(C)c1NC(=S)NCCO` [Preparation H, 1-(2,6-dimethylphenyl)-3-(2-hydroxyethyl)thiourea]: the “found to be active in the antisecretory test” value in the assay on gastric secretion is “active”. In addition, the “found to be active in the antimotility tests” value in assay [1] was “active”.
For `Cc1cc(Cl)ccc1NC(=S)NCCO` [L], the figures for the ED50 (in the assay with gastric secretion; in assay [1]; in the assay with diarrhea) were 1 to 3 mg/kg, 15 to 30 mg/kg and < 30 mg/kg, respectively.
As to `CCNC(=S)Nc1ccc(C)cc1C` [AF], the values for the ED50 (in the assay on gastric secretion; in assay [1]) were > 10 mg/kg and > 30 mg/kg, respectively.
`Cc1ccccc1NC(=S)N(C)C` [Preparation AA]: the “found to be active in the antimotility tests” value in assay [1] is “active”.
In the case of `Cc1ccccc1NC(=S)N(C)C` [AA], the ED50 with gastric secretion is > 10 mg/kg; in assay [1], < 30 mg/kg; with diarrhea, < 30 mg/kg.
As for `Cc1ccc(NC(=S)NC(C)CO)c(C)c1` (stereo not shown) [AN], the ED50 is > 10 mg/kg in the assay on gastric secretion and > 30 mg/kg in assay [1].
On to `Cc1cccc(C)c1NC(=S)N(C)C` [Preparation AC], for which the “found to be active in the antimotility tests” value in assay [1] is “active”.
Same read-out and setting: for `Cc1ccc(NC(=S)NCCN)c(C)c1` [Preparation AG] the value was “active”.
For the molecule `Cc1cc(C)cc(NC(=S)NCCO)c1` [J], the values for the ED50 (with gastric secretion; in assay [1]) were > 10 mg/kg and > 30 mg/kg, respectively.
As to `Cc1cc(Cl)ccc1NC(=S)NCCN` [Preparation AJ], in assay [1], the “found to be active in the antimotility tests” value was “active”.
For the molecule `Cc1cc(Cl)ccc1NC(=S)NCCN` [AJ], the ED50 in the assay on gastric secretion was > 10 mg/kg; in assay [1], 30 mg/kg.
The corresponding values for `Cc1cc(Cl)ccc1NC(=S)N(C)C` [AD] are > 10 mg/kg and < 30 mg/kg.
Consider `Cc1cccc(C)c1NC(=S)NCCN` [Preparation AI], for which the “found to be active in the antimotility tests” value in assay [1] is listed as “active”.
Still for that read-out and setting: for `Cc1ccc(NC(=S)N(C)C)c(C)c1` [Preparation AB] the value was “active”.
Consider `CN1[C@@H]2CC[C@H]1C[C@@H](OC(=O)C(CO)c1ccccc1)C2` (stereo partly shown) [atropine, reference compound], for which the ED50 is 9.8 mg/kg in assay [1] and > 40 mg/kg in the assay on diarrhea.

The ED50 is the dose at which the effect has come halfway, by size or by number of responders.
